From patent US20230364111A1 (priority 2020, published 2023)
Values after ≈ are worked out from the molar mass of the structure shown. “Also recorded” adds a separate entry of the source. Like-named read-outs stand apart in the source and are kept apart here.

What was measured:
[1] = in vitro; details: African green monkey
[2] = tested on: SARS-CoV-2 Wk-521 strain; assay: SARS-CoV-2 infection assay, viral RNA in culture supernatant (VeroE6/TMPRSS2 cells); type: cell-based
[3] = tested on: VeroE6/TMPRSS2 cells
[4] = tested on: SARS-CoV-2 (isolate USA WA1/2020); assay: SARS-CoV-2 infection of Calu-3 cells (dsRNA+ cells, automated microscopy); type: cell-based
Experimental: (§1) FIGS. 12A-12C depict dose-response curves for Oxy232. (FIG. 12A) Secreted viral RNA in the VeroE6 culture supernatant 24 h post-inoculation was quantified by real-time RT-PCR. Cell viability of Oxy232 treated cells evaluated with an MTT assay. (FIG. 12B) Secreted viral RNA of 3 SARS-CoV-2 strains in the VeroE6 culture supernatant 24 h post-inoculation was quantified by real-time RT-PCR. (FIG. 12C) Calu-3 (ATCC) cells were pretreated with Oxy232 for 2 hours prior to continuous infection with SARS-CoV-2 (isolate USA WA1/2020) at MOI=0.5. 48 h post-infection, cells were fixed, immune-strained, and imaged by automated microscopy for infection (dsRNA+ cells/total cell number) and cell number.
According to a previously published report (Ohashi et al., Identification of Anti-Severe Acute Respiratory Syndrome-Related Coronavirus 2 (SARS-CoV-2) Oxysterol Derivatives In Vitro. Int J Mol Sci. 2021; 22(6):3163. PMCID: PMC8003796) inventors have tested a collection of naturally occurring and semisynthetic oxysterol derivatives in a SARS-CoV-2 cell culture infection assay in VeroE6/TMPRSS2 cells. […] See, Ohashi et al., Int J Mol Sci. 2021; 22(6):3163 and Dittmar et al. Drug repurposing screens reveal cell-type-specific entry pathways and FDA-approved drugs active against SARS-Cov-2. Cell Rep. […] PMCID: PMC7985926. […] Without wishing to be bound by a theory, biological activities of oxysterols, including measures of cell viability, can heavily depend on in vitro assay conditions, such as the fetal bovine serum concentration or the duration of pretreatment with the compounds, among other factors, that may not translate to the in vivo safety of the compounds.

[5] = in vitro; details: human
[6] = tested on: Hedgehog (Hh) signaling; type: cell-based; details: 10 μM; NIH3T3 cells with CAPAN-1 conditioned medium containing Shh
[7] = tested on: SARS-CoV-2 TY8-612 (South Africa strain); assay: SARS-CoV-2 TY8-612 strain infection in VeroE6/TMPRSS2 cells; type: cell-based; details: viral RNA 24 h post-inoculation
Experimental: as §1
(§2) According to a previously published report (Ohashi et al., Identification of Anti-Severe Acute Respiratory Syndrome-Related Coronavirus 2 (SARS-CoV-2) Oxysterol Derivatives In Vitro. Int J Mol Sci. 2021; 22(6):3163. PMCID: PMC8003796) inventors have tested a collection of naturally occurring and semisynthetic oxysterol derivatives in a SARS-CoV-2 cell culture infection assay in VeroE6/TMPRSS2 cells. […] See, Ohashi et al., Int J Mol Sci. 2021; 22(6):3163 and Dittmar et al. Drug repurposing screens reveal cell-type-specific entry pathways and FDA-approved drugs active against SARS-Cov-2. Cell Rep. […] PMCID: PMC7985926. […]

[8] = for Mean Oxy232 Levels in Lung Tissue (ng/g) / Mean Oxy232 Levels in Lung Tissue (μM): oral 200 mg/kg
[9] = tested on: SARS-CoV-2 TY7-501 (Brazil strain); assay: SARS-CoV-2 TY7-501 strain infection in VeroE6/TMPRSS2 cells; type: cell-based; details: viral RNA 24 h post-inoculation
Experimental: as §1, §2

[10] = tested on: double-membrane vesicles (DMVs) in SARS-CoV-2-infected cells; assay: Electron microscopy of double-membrane vesicle (DMV) formation; type: cell-based; details: 10 μM Oxy210, Oxy232 (10 μM)
[11] = tested on: Calu-3 cells; details: at higher concentrations; automated microscopy
[12] = tested on: TGFβ signaling; type: cell-based; details: 10 μM; NIH3T3 cells stimulated with 20 ng/mL TGFβ
[13] = Severe acute respiratory syndrome coronavirus 2, VeroE6/TMPRSS2, 24 h, SARS-CoV-2 viral RNA in culture supernatant, 24 h post-inoculation, VeroE6/TMPRSS2 cells, read-out: IC90
[14] = Severe acute respiratory syndrome coronavirus 2, SARS-CoV-2 viral RNA in culture supernatant, 24 h post-inoculation, VeroE6/TMPRSS2 cells, read-out: IC50

## CCC(CC)COC(=O)[C@H](C)N[P@](=O)(OC[C@H]1O[C@@](C#N)(c2ccc3c(N)ncnn23)[C@H](O)[C@@H]1O)Oc1ccccc1 [RDV, remdesivir, reference compound]
[1]
  CC50: > 10 µM
[2]; Severe acute respiratory syndrome coronavirus 2, Vero C1008, read-out: IC50 (VeroE6)
  IC50: 1.5 µM
[2]; Severe acute respiratory syndrome coronavirus 2, Vero C1008, read-out: IC90 (VeroE6), SARS-CoV-2, VeroE6
  IC90: 1.5 µM
[2]; [13]
  IC90: 2.5 µM
[2]; [14]
  IC50: 1.5 µM
[3]; read-out: CC50 (VeroE6), VeroE6
  CC50: > 10 µM
[4]; Severe acute respiratory syndrome coronavirus 2, Calu-3, 48 h, read-out: IC50 (Calu-3)
  IC50: 0.08 µM
[4]; Severe acute respiratory syndrome coronavirus 2, Calu-3, 48 h, read-out: IC90 (Calu-3)
  IC90: 0.16 µM
[5]
  CC50: > 10 µM

## CC[C@@](O)(CCc1cccnc1)[C@H]1CC[C@H]2[C@@H]3CC[C@H]4C[C@@H](O)CC[C@]4(C)[C@H]3CC[C@]12C [Oxy232, (3S,5S,8R,9S,10S,13S,14S,17S)-17-((R)-3-hydroxy-1-(pyridin-3-yl)pentan-3-yl)-10,13-dimethylhexadecahydro-1H-cyclopenta[a]phenanthren-3-ol]
[6]
  inhibitory activity toward Hh signaling (Gli1 mRNA): retains inhibitory activity toward Hh signaling
[1]
  CC50: > 15 µM
[7]
  activity against the TY8-612 strain: undiminished activity
[2]; 24 h post-inoculation, natural oxysterols up to 30 μM, semi-synthetic up to 15 μM
  viral RNA in the culture supernatant: reduced viral RNA level in a dose-dependent manner
[2]; Severe acute respiratory syndrome coronavirus 2, Vero C1008, read-out: IC50 VeroE6 cells (ng/mL)
  IC50: 2370 ng/mL
[2]; Severe acute respiratory syndrome coronavirus 2, Vero C1008, read-out: IC90 VeroE6 cells (ng/mL), Table 6, same value in mass units
  IC90: 3250 ng/mL
[2]; Severe acute respiratory syndrome coronavirus 2, Vero C1008, SARS-CoV-2, VeroE6, read-out: IC50 (VeroE6)
  IC50: 5.4 µM
[2]; Severe acute respiratory syndrome coronavirus 2, Vero C1008, SARS-CoV-2, VeroE6, read-out: IC90 (VeroE6)
  IC90: 7.8 µM
[2]; Severe acute respiratory syndrome coronavirus 2, Vero C1008, Table 6, read-out: IC50 VeroE6 cells
  IC50: 5.4 µM
[2]; Severe acute respiratory syndrome coronavirus 2, Vero C1008, Table 6, read-out: IC90 VeroE6 cells
  IC90: 7.8 µM
[2]; [13]
  IC90: 7.8 µM
[2]; [14]
  IC50: 5.4 µM
[2]; Table 6, same value in mass units
  IC90 VeroE6 cells: 3.429 µg/mL (≈ 7.8 µM)
[2]; at 15 μM
  reduction of viral RNA production at the maximum: 99.9%
[2]; cell-based assay, VeroE6/TMPRSS2
  anti-SARS-CoV-2 activity: superior anti-SARS-CoV-2 activity; also recorded: anti-SARS-CoV-2 activity comparable to Oxy210; also recorded: significant anti SARS-CoV-2 activity
[2]; oxysterol derivatives at 10 or 30 uM, 24 h post-inoculation, VeroE6/TMPRSS2
  viral RNA levels in the culture supernatant: strongly reduced viral RNA levels
[2]; statement in words
  SARS-CoV-2 replication: drastically reduced SARS-CoV-2 replication
[2]; tested in multiple studies, VeroE6/TMPRSS2
  viral inhibition: greater than 99%
[8]; mice, time 0 h
  Mean Oxy232 Levels in Lung Tissue (ng/g): 0 ng/g
  Mean Oxy232 Levels in Lung Tissue (μM): 0 µM
[8]; mice, time 0.25 h
  Mean Oxy232 Levels in Lung Tissue (ng/g): 1500 ng/g
  Mean Oxy232 Levels in Lung Tissue (μM): 3.41 µM
[8]; mice, time 0.5 h
  Mean Oxy232 Levels in Lung Tissue (ng/g): 8055 ng/g
  Mean Oxy232 Levels in Lung Tissue (μM): 18.32 µM
[8]; mice, time 1 h
  Mean Oxy232 Levels in Lung Tissue (ng/g): 9427 ng/g
  Mean Oxy232 Levels in Lung Tissue (μM): 21.44 µM
[8]; mice, time 2 h
  Mean Oxy232 Levels in Lung Tissue (ng/g): 7764 ng/g
  Mean Oxy232 Levels in Lung Tissue (μM): 17.66 µM
[8]; mice, time 4 h
  Mean Oxy232 Levels in Lung Tissue (ng/g): 2916 ng/g
  Mean Oxy232 Levels in Lung Tissue (μM): 6.63 µM
[8]; mice, time 8 h
  Mean Oxy232 Levels in Lung Tissue (ng/g): 673 ng/g
  Mean Oxy232 Levels in Lung Tissue (μM): 1.53 µM
[8]; mice, time 24 h
  Mean Oxy232 Levels in Lung Tissue (ng/g): 122 ng/g
  Mean Oxy232 Levels in Lung Tissue (μM): 0.28 µM
[8]; oral dosing in mice
  tolerability of oral dosing: well tolerated
[8]; single dose 200 mg/kg, mice
  concentrations in lung tissue homogenate compared to plasma: generally higher than in plasma
  time lung homogenate concentration above Calu-3 IC50 levels: more than 3.5 h
  time lung homogenate concentration above VeroE6 IC50 levels: 5 h
  time plasma concentration above IC50 levels for antiviral activity (VeroE6/TMPRSS2): more than 3 hours
[3]; MTT assay, 24 h, VeroE6/TMPRSS2 cells
  CC50: > 15 µM
[9]
  activity against the TY7-501 strain: undiminished activity
[10]
  DMV formation in SARS-CoV-2-infected cells: inhibit DMV formation
[11]
  cell viability in Calu-3 cells: do affect cell viability
[4]; Severe acute respiratory syndrome coronavirus 2, Calu-3, read-out: IC50 Calu-3 cells (ng/ml)
  IC50: 3050 ng/mL
[4]; Severe acute respiratory syndrome coronavirus 2, Calu-3, read-out: IC90 Calu-3 cells (ng/ml)
  IC90: 5920 ng/mL
[4]; Severe acute respiratory syndrome coronavirus 2, Calu-3, Table 6, read-out: IC50 Calu-3 cells
  IC50: 6.9 µM
[4]; Severe acute respiratory syndrome coronavirus 2, Calu-3, Table 6, read-out: IC90 Calu-3 cells
  IC90: 13.5 µM
[4]; Severe acute respiratory syndrome coronavirus 2, SARS-CoV-2 USA WA1/2020, MOI=0.5, 48 h post-infection, Calu-3, read-out: IC50 (Calu-3)
  IC50: 6.9 µM
[4]; Severe acute respiratory syndrome coronavirus 2, SARS-CoV-2 USA WA1/2020, MOI=0.5, 48 h post-infection, Calu-3, read-out: IC90 (Calu-3)
  IC90: 13.5 µM
[4]; USA WA1/2020 isolate, at NIAID
  antiviral activity in Calu-3 human lung epithelial cells: confirmed the antiviral activity
[5]
  CC50: 29.4 µM
[12]
  TGFβ inhibitory properties (CTGF mRNA): devoid of significant TGFβ pathway inhibitory properties
